Data: US20240246905A1 (University of Leicester, priority 2021, published 2024)

Experiments:
[1] = test system: Staphylococcus aureus 15981; experiment: Disc diffusion (Kirby-Bauer), zone of inhibition; format: cell-based; conditions: Staphylococcus aureus 15981; 500 μg/mL; '/' = no zone; read-out: Zone of inhibition
Outline: (§1)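 Zones of inhibition recorded after 24 h at 37 °C on Mueller-Hinton agar. Agar was inoculated with 1 in 200 diluted 18 h broth cultures, and discs carried 50 μL of antibiotic. Method follows CLSI 2017 disc diffusion.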

HEK293 cells = experiment: Cytotoxicity assay, resazurin (CO-ADD)
Experimental: The cytotoxicity studies were performed by CO-ADD (The Community for Open Antimicrobial Drug Discovery), funded by the Wellcome trust (UK) and the University of Queensland, Australia.^(28) In this study, the compounds were screened against a human embryonic kidney cell line, HEK293, at a set concentration of 32 μg/mL.
DMEM supplemented with 10% FBS was used as growth media and the cells were incubated together with the compounds for 20 hours at 37° C. in 5% CO2.
Cytotoxicity (or cell viability) was measured by fluorescence, excitation: 560/10 nm, emission: 590/10 nm (F560/590), after addition of 5 μL of 25 μg/mL Resazurin (2.3 μg/mL final concentration) and after incubation for further 3 h at 37° C. in 5% CO2. The fluorescence intensity was measured using a Tecan M1000 Pro monochromator plate reader, using automatic gain calculation CC50 (concentration at 50% cytotoxicity) were calculated by curve fitting the inhibition values vs. log(concentration) using sigmoidal dose-response function, with variable fitting values for bottom, top and slope. The curve fitting was implemented using Pipeline Pilot's dose-response component.

[2] = test system: various Staphylococcus aureus strains; experiment: Disc diffusion, Staphylococcus aureus strain study; format: cell-based; conditions: Staphylococcus aureus, 500 μg/mL
Description: At this point in the study it was decided to perform a disc diffusion assay study on 50 S. aureus strains. […] Moreover, by employing a range of mutant strains of S. aureus with specific gene-deletions, it was believed that if particular strains were resistant to the lead compounds, it could provide insights on the likely protein target of the lead antibiotics. However, all six of the compounds utilized in this study were able to inhibit growth of all 50 strains of S. aureus assayed at the chosen concentration of 500 μg/mL concentration (Table 5).
E. coli DH5α, P. aeruginosa PA01 and the 53 S. aureus strains were recovered from frozen (−80° C.) glycerol (15% v/v) stocks on Lysogeny agar (LA)—Gram negative and trypticase soy agar (TSA)—plates at 37° C. for 24 hours. Single colonies were placed in either 3 mL Lysogeny broth (LB)—Gram negative or trypticase soy broth (TSB)—Gram positive and incubated at 37° C., 250 rpm for 18 hours.
The antibiotic activity was determined using a Kirby-Bauer method according to Clinical Standard Laboratory Institute (CSLI) Guidelines (2017). Briefly, 180 μL of a 1 in 200 dilution (in LB or TSB) of overnight cultures of selected Gram negative and Gram positive bacteria were applied to an agar plate containing the solid growth medium, Mueller-Hinton agar (MHA). Sterile discs, inoculated with 50 μL of antibiotic, were first added to the agar plate before the plates were incubated for 24 hours at 37° C. Following incubation, the zone of inhibition (if it existed) was recorded.

red blood cells = experiment: Hemolysis assay (CO-ADD); format: cell-based; conditions: 32 μg/mL highest concentration tested
Description: A problem often encountered by emerging drugs is hemolysis, also known as drug-induced immune hemolytic anemia.

MSSA 476 [3] = experiment: MIC, broth micro-dilution; format: cell-based, Staphylococcus aureus; conditions: Staphylococcus aureus, MSSA, read-out: MIC
Outline: (§2)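 S. aureus cultures grown 18 h in TSB were used to inoculate twofold antibiotic series in TSB at 5×10^5 CFU/mL, per CLSI guidelines. Growth curves read by optical density at 12-min intervals for 18 h at 37 °C were fitted sigmoidally to calculate MIC.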

MRSA 252 [4] = experiment: MIC, broth micro-dilution; format: cell-based, Staphylococcus aureus; conditions: Staphylococcus aureus, read-out: MIC
Outline: as §2

MSSA 476 [5] = experiment: Disc diffusion (Kirby-Bauer), zone of inhibition; format: cell-based, Staphylococcus aureus; conditions: Staphylococcus aureus, 500 μg/mL, '/' = no zone, read-out: Zone of inhibition
Outline: as §1

MRSA 252 [6] = experiment: Disc diffusion (Kirby-Bauer), zone of inhibition; format: cell-based, Staphylococcus aureus; conditions: Staphylococcus aureus, 500 μg/mL, '/' = no zone, read-out: Zone of inhibition
Outline: as §1

[C-]#[N+]C=Cc1cc(Br)ccc1O [Compound 13]
24 mm: zone of inhibition at 500 µg/mL ([2]; strain EOE 3) | zone of inhibition at 500 µg/mL ([2]; strain EOE 45) | zone of inhibition at 500 µg/mL ([2]; strain S139_7_7)
25 mm: zone of inhibition at 500 µg/mL ([2]; strain EOE 57) | zone of inhibition at 500 µg/mL ([2]; strain S364_5_12)
16 mm: zone of inhibition at 500 µg/mL ([2]; strain ASARM 72) | zone of inhibition at 500 µg/mL ([2]; strain Sa_TPS 3106)
145 mg/L: MIC (MSSA 476 [3])
22 mm: zone of inhibition at 500 µg/mL ([2]; strain EOE 23) | zone of inhibition at 500 µg/mL ([2]; strain EOE 30) | zone of inhibition at 500 µg/mL ([2]; strain EOE 35) | zone of inhibition at 500 µg/mL ([2]; strain EOE 52) | zone of inhibition at 500 µg/mL ([2]; strain EOE 54) | zone of inhibition at 500 µg/mL ([2]; strain S295_1_1) | zone of inhibition at 500 µg/mL ([2]; strain Sa_TPS 3104) | zone of inhibition at 500 µg/mL ([2]; strain Sa_TPS 3118) | zone of inhibition at 500 µg/mL ([2]; strain USFL 009) | zone of inhibition at 500 µg/mL ([2]; strain USFL 012) | zone of inhibition at 500 µg/mL ([2]; strain USFL 021) | zone of inhibition at 500 µg/mL ([2]; strain USFL 028) | zone of inhibition at 500 µg/mL ([2]; strain USFL 035) | zone of inhibition at 500 µg/mL ([2]; strain USFL 054) | zone of inhibition at 500 µg/mL (MSSA 476 [5]) | zone of inhibition at 500 µg/mL (MRSA 252 [6])
18 mm: zone of inhibition at 500 µg/mL [1] | zone of inhibition at 500 µg/mL ([2]; strain ASARM 80) | zone of inhibition at 500 µg/mL ([2]; strain Sa_TPS 3134) | zone of inhibition at 500 µg/mL ([2]; strain USFL 008)
35 mg/L: MIC (MRSA 252 [4])
no toxicity: toxicity towards the HEK293 cell line (in words) (HEK293 cells; set concentration of 32 μg/mL)
21 mm: zone of inhibition at 500 µg/mL ([2]; strain Sa_TPS 3072)
20 mm: zone of inhibition at 500 µg/mL ([2]; strain ASARM 61) | zone of inhibition at 500 µg/mL ([2]; strain ASARM 70) | zone of inhibition at 500 µg/mL ([2]; strain ASARM 71) | zone of inhibition at 500 µg/mL ([2]; strain ASARM 73) | zone of inhibition at 500 µg/mL ([2]; strain ASARM 75) | zone of inhibition at 500 µg/mL ([2]; strain ASARM 76) | zone of inhibition at 500 µg/mL ([2]; strain ASARM 77) | zone of inhibition at 500 µg/mL ([2]; strain ASARM 79) | zone of inhibition at 500 µg/mL ([2]; strain EOE 41) | zone of inhibition at 500 µg/mL ([2]; strain EOE 42) | zone of inhibition at 500 µg/mL ([2]; strain S197_1_8) | zone of inhibition at 500 µg/mL ([2]; strain S197_1_9) | zone of inhibition at 500 µg/mL ([2]; strain S197_1_10) | zone of inhibition at 500 µg/mL ([2]; strain S295_1_2) | zone of inhibition at 500 µg/mL ([2]; strain S295_1_3) | zone of inhibition at 500 µg/mL ([2]; strain S364_5_11) | zone of inhibition at 500 µg/mL ([2]; strain Sa_TPS 3026) | zone of inhibition at 500 µg/mL ([2]; strain Sa_TPS 3092) | zone of inhibition at 500 µg/mL ([2]; strain Sa_TPS 3097) | zone of inhibition at 500 µg/mL ([2]; strain Sa_TPS 3103) | zone of inhibition at 500 µg/mL ([2]; strain Sa_TPS 3133) | zone of inhibition at 500 µg/mL ([2]; strain USFL 016) | zone of inhibition at 500 µg/mL ([2]; strain USFL 018) | zone of inhibition at 500 µg/mL ([2]; strain USFL 020)
26 mm: zone of inhibition at 500 µg/mL ([2]; strain S197_1_1)
>32 µg/mL: Concentration toxic to HEK 293 cells (HEK293 cells; HEK 293) | Hemolytic activity (HC10) (red blood cells)
